According to patent publication US9676757B2, “Heterocyclic compounds as NaV channel inhibitors and uses thereof” (Merck Patent GmbH, priority 2014, dated 2017):
Read-outs that look alike come from different tables or passages of the source.

Target: Nav1.6 (Homo sapiens, UniProt Q9UQD0)
Assay: Nav two-pulse protocol, IonWorks Quattro electrophysiology
Assay type: cell-based
Conditions: -120 mV to 0 mV, compound incubated 300 s
Experimental: Compound Plate Preparation
Supplied compounds were sent as Assay Ready Plates, with 2 μL per well of compound in DMSO at 300× the final assay concentrations as described above and in the project proposal. All assay plates are stored at in a −80° C. freezer.
On the day of the assay, 198 μL of external solution was added to the appropriate assay plate and mixed thoroughly. This provided a 1:100 dilution. A further 1:3 dilution occurred upon addition to the cells in the IonWorks, giving a 1:300 dilution in total.
On each assay plate, at least 8 wells were reserved for vehicle control (0.3% DMSO) and at least 8 wells for each positive control specific to the cell line tested. The positive controls were tested in an 8-point dose response with 3-fold dilutions to determine an IC50 value for each run. The positive control compounds are outlined below.
Ion Channel Positive Control & Concentrations
Nav1.6/1.2 Lidocaine: 8, 3-fold dilutions starting at 100 μM
Electrophysiological Recording Solutions
The solutions for recording currents were are follows:
Amphotericin B was used to obtain electrical access to the cell interior at a final concentration of 200 μg/ml in internal recording solution.
Experimental Protocols & Data Analysis
Nav currents were evoked by stepping from a holding potential of −120 mV to 0 mV for 2.5 s (pulse 1), followed by a 5 ms inter-pulse interval, and stepping from a holding potential of −120 mV to 0 mV for 20 ms (pulse 2). The voltage protocol was applied (Pre), compounds added, incubated for 300 seconds, and the voltage protocol was applied a final time (Post) on the IonWorks Quattro.
The parameters measured were the maximum inward current evoked on stepping to 0 mV from the 1st and 2nd pulse. All data were filtered for seal quality, seal drop, and current amplitude. The peak current amplitude (Peak) was calculated before (Pre) and after (Post) compound addition to the amount of block was assessed by dividing the Post-compound current amplitude by the Pre-compound current amplitude. These procedures were implemented for the 1st and 2nd pulse.

Chain of Nav1.6 (Q9UQD0 whole entry): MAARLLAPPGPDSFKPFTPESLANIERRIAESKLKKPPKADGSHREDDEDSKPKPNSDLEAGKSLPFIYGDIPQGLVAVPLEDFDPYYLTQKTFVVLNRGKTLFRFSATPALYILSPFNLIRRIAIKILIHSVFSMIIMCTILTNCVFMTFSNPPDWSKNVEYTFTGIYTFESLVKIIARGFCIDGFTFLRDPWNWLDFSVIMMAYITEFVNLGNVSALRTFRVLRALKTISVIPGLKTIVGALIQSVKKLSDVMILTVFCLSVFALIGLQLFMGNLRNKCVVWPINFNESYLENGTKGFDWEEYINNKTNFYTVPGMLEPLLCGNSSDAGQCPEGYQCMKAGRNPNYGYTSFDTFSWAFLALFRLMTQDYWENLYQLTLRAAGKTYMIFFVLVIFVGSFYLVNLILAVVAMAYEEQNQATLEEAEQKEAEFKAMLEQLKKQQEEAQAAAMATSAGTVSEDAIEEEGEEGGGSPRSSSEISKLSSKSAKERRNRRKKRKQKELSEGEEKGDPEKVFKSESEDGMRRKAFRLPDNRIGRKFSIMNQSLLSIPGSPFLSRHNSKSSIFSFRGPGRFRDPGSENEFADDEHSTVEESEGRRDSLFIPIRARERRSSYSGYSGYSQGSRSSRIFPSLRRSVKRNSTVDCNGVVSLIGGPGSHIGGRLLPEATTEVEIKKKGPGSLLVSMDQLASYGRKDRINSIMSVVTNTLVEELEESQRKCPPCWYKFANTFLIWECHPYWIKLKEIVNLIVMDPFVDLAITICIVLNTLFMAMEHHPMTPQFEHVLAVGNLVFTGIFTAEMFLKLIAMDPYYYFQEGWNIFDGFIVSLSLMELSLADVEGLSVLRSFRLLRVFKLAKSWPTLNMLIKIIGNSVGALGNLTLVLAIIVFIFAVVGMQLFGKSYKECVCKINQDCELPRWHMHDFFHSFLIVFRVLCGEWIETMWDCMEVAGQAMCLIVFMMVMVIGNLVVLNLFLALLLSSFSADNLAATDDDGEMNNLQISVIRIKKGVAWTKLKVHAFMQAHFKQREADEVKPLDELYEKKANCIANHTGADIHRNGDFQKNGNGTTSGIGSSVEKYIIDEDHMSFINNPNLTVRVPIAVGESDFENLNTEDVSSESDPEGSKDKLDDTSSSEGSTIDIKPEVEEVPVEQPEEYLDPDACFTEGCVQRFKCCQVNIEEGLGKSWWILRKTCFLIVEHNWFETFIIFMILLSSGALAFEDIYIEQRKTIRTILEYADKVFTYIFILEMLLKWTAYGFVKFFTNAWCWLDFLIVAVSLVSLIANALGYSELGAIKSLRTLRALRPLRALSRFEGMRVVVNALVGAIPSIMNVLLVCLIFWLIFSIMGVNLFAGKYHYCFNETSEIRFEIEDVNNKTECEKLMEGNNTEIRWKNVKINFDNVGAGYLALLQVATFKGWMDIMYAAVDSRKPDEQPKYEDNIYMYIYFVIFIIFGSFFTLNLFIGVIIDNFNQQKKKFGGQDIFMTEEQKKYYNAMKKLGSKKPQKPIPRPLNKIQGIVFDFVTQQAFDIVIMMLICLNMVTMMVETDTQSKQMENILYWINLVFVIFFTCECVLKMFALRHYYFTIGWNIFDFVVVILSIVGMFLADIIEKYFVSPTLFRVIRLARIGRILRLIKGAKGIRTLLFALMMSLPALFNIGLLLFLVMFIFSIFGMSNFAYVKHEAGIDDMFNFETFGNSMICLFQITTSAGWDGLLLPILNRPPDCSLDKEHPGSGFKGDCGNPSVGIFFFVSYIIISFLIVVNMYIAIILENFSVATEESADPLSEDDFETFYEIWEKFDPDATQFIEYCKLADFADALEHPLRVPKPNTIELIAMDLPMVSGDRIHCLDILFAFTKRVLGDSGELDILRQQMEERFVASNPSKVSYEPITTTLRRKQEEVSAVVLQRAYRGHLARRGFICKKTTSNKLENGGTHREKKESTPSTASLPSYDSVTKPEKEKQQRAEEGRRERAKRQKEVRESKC

Row | Structure (SMILES) | IC50 (read-out: Nav1.6 Tonic) [µM] | IC50 (read-out: Nav1.6 inac) [µM]
1 | COc1ccc(-c2nc(C3CCN(Cc4cccc(OCC(C)C)c4)C3)no2)nc1 (stereo not shown) [Compound 54, 2-{3-[1-(3-Isobutoxy-benzyl)-pyrrolidin-3-yl]-[1,2,4]oxadiazol-5-yl}-5-methoxy-pyridine] | > 20 | 1 to 5
2 | O=C(NCc1ccccn1)C1(O)CCN(Cc2cccc(Oc3ccccc3)c2)C1=O (stereo not shown) [Compound 94, 3-Hydroxy-2-oxo-1-(3-phenoxy-benzyl)-pyrrolidine-3-carboxylic acid (pyridin-2-ylmethyl)-amide] | > 20 | 1 to 5
3 | COc1cccnc1-c1nc(C2CCN(Cc3cccc(OCC(C)C)c3)C2)no1 (stereo not shown) [Compound 49, 2-{3-[1-(3-Isobutoxy-benzyl)-pyrrolidin-3-yl]-[1,2,4]oxadiazol-5-yl}-3-methoxy-pyridine] | > 20 | 1 to 5
4 | CC(C)COc1cccc(CN2CCC(c3nnc(CO)o3)C2)c1 (stereo not shown) [Compound 64, {5-[1-(3-Isobutoxy-benzyl)-pyrrolidin-3-yl]-[1,3,4]oxadiazol-2-yl}-methanol] | > 20 | 1 to 5
5 | O=C(NCc1cc(F)cc(F)c1)C1CCN(Cc2cccc(Oc3ccccc3)c2)C1 (stereo not shown) [Compound 76, 1-(3-Phenoxy-benzyl)-pyrrolidine-3-carboxylic acid 3,5-difluoro-benzylamide] | 10 to 20 | < 1
6 | Cc1ccc(-c2nc(C3CCN(Cc4cccc(OCC(C)C)c4)C3)no2)nc1 (stereo not shown) [Compound 55, 2-{3-[1-(3-Isobutoxy-benzyl)-pyrrolidin-3-yl]-[1,2,4]oxadiazol-5-yl}-5-methyl-pyridine] | > 20 | 1 to 5
7 | CC(C)COc1cccc(CN2CCC(c3noc(-c4ncccc4F)n3)C2)c1 (stereo not shown) [Compound 50, 3-Fluoro-2-{3-[1-(3-isobutoxy-benzyl)-pyrrolidin-3-yl]-[1,2,4]oxadiazol-5-yl}-pyridine] | > 20 | > 5
8 | Cc1cccnc1-c1nc(C2CCN(Cc3cccc(OCC(C)C)c3)C2)no1 (stereo not shown) [Compound 51, 2-{3-[1-(3-Isobutoxy-benzyl)-pyrrolidin-3-yl]-[1,2,4]oxadiazol-5-yl}-3-methyl-pyridine] | > 20 | 1 to 5
9 | CC(C)COc1cccc(CN2CCC(c3noc(-c4ccc(F)cn4)n3)C2)c1 (stereo not shown) [Compound 59, 5-Fluoro-2-{3-[1-(3-isobutoxy-benzyl)-pyrrolidin-3-yl]-[1,2,4]oxadiazol-5-yl}-pyridine] | > 20 | > 5
10 | Cc1cncc(Oc2cccc(CN3CCC(C(=O)NCc4ccccn4)C3)c2)n1 (stereo not shown) [Compound 18, 1-[3-(6-Methyl-pyrazin-2-yloxy)-benzyl]-pyrrolidine-3-carboxylic acid (pyridin-2-ylmethyl)-amide] | > 20 | > 5
11 | Cc1cccc(-c2cn(C3CCN(Cc4cccc(OCC(C)C)c4)C3)nn2)n1 (stereo not shown) [Compound 61, 2-{1-[1-(3-Isobutoxy-benzyl)-pyrrolidin-3-yl]-1H-[1,2,3]triazol-4-yl}-6-methyl-pyridine] | > 20 | > 5
12 | O=C(NCc1ccc(OC(F)(F)F)cc1)C1CCN(Cc2cccc(Oc3ccccc3)c2)C1 (stereo not shown) [Compound 67, 1-(3-Phenoxy-benzyl)-pyrrolidine-3-carboxylic acid 4-trifluoromethoxy-benzylamide] | 10 to 20 | < 1
13 | Cc1ccc(Oc2cccc(CN3CCC(F)(C(=O)NCc4ccccn4)C3)c2)cc1 (stereo not shown) [Compound 22, 3-Fluoro-1-(3-p-tolyloxy-benzyl)-pyrrolidine-3-carboxylic acid (pyridin-2-ylmethyl)-amide] | > 20 | 1 to 5
14 | Cc1ccc(CNC(=O)C2CCN(Cc3cccc(Oc4ccccc4)c3)C2)o1 (stereo not shown) [Compound 91, 1-(3-Phenoxy-benzyl)-pyrrolidine-3-carboxylic acid (5-methyl-furan-2-ylmethyl)-amide] | > 20 | > 5
15 | CC1(C(=O)N2Cc3ccncc3C2)CCN(Cc2cccc(Oc3ccccc3)c2)C1 (stereo not shown) [Compound 108, (1,3-Dihydro-pyrrolo[3,4-c]pyridin-2-yl)-[3-methyl-1-(3-phenoxy-benzyl)-pyrrolidin-3-yl]-methanone] | > 20 | 1 to 5
16 | O=C(NCc1ccccc1F)C1CCN(Cc2cccc(Oc3ccccc3)c2)C1 (stereo not shown) [Compound 73, 1-(3-Phenoxy-benzyl)-pyrrolidine-3-carboxylic acid 2-fluoro-benzylamide] | 10 to 20 | 1 to 5
17 | Cc1ccc(F)cc1CNC(=O)C1CCN(Cc2cccc(Oc3ccccc3)c2)C1 (stereo not shown) [Compound 84, 1-(3-Phenoxy-benzyl)-pyrrolidine-3-carboxylic acid 5-fluoro-2-methyl-benzylamide] | 10 to 20 | < 1
18 | O=C(NCc1ccc(F)cc1F)C1CCN(Cc2cccc(Oc3ccccc3)c2)C1 (stereo not shown) [Compound 78, 1-(3-Phenoxy-benzyl)-pyrrolidine-3-carboxylic acid 2,4-difluoro-benzylamide] | 10 to 20 | 1 to 5
19 | COc1ccnc(-c2nc(C3CCN(Cc4cccc(OCC(C)C)c4)C3)no2)c1 (stereo not shown) [Compound 52, 2-{3-[1-(3-Isobutoxy-benzyl)-pyrrolidin-3-yl]-[1,2,4]oxadiazol-5-yl}-4-methoxy-pyridine] | > 20 | 1 to 5

Results, then the molecule that gave them:

Row | IC50 (read-out: Nav1.6 Tonic) [µM] | IC50 (read-out: Nav1.6 inac) [µM] | Structure (SMILES)
20 | > 20 | > 5 | CC1(C(=O)NCc2ccccn2)CCN(Cc2cccc(Oc3ncccn3)c2)C1 (stereo not shown) [Compound 27, 3-Methyl-1-[3-(pyrimidin-2-yloxy)-benzyl]-pyrolidine-3-carboxylic acid (pyridin-2-ylmethyl)-amide]
21 | > 20 | < 1 | CC(C)OCc1cccc(CN2CCC(CNC(=O)c3ccccn3)C2)c1 (stereo not shown) [Compound 36, Pyridine-2-carboxylic acid [1-(3-isopropoxymethyl-benzyl)-pyrrolidin-3-ylmethyl]-amide]
22 | > 20 | < 1 | O=C(NCc1ccccn1)C1CCN(Cc2cccc(Oc3ccc(F)cc3F)c2)C1 (stereo not shown) [Compound 8, 1-[3-(2,4-Difluoro-phenoxy)-benzyl]-pyrrolidine-3-carboxylic acid (pyridin-2-ylmethyl)-amide]
23 | 10 to 20 | < 1 | CC(C)(C)c1ccc(CNC(=O)C2CCN(Cc3cccc(Oc4ccccc4)c3)C2)cc1 (stereo not shown) [Compound 81, 1-(3-Phenoxy-benzyl)-pyrrolidine-3-carboxylic acid 4-tert-butyl-benzylamide]
24 | > 20 | 1 to 5 | CC1(C(=O)N2CCNCC2)CCN(Cc2cccc(Oc3ccccc3)c2)C1 (stereo not shown) [Compound 39, [3-Methyl-1-(3-phenoxy-benzyl)-pyrrolidin-3-yl]-piperazin-1-yl-methanone]
25 | 10 to 20 | < 1 | CC1(C(=O)NCc2ccccn2)CCCN(Cc2cccc(Oc3ccccc3)c2)C1=O (stereo not shown) [Compound 110, 3-Methyl-2-oxo-1-(3-phenoxy-benzyl)-piperidine-3-carboxylic acid (pyridin-2-ylmethyl)-amide]
26 | 10 to 20 | < 1 | COc1ccc(CNC(=O)C2CCN(Cc3cccc(Oc4ccccc4)c3)C2)cc1 (stereo not shown) [Compound 66, 1-(3-Phenoxy-benzyl)-pyrrolidine-3-carboxylic acid 4-methoxy-benzylamide]
27 | > 20 | 1 to 5 | O=C(NCc1ccccn1)C1(O)CCN(Cc2cccc(Oc3ccccc3)c2)C1 (stereo not shown) [Compound 93, 3-hydroxy-1-(phenyloxy-benzyl)-pyrrolidine-3-carboxylic acid (pyridin-2-ylmethyl)-amide]
28 | > 20 | 1 to 5 | Cn1ccnc1CNC(=O)C1(C)CCN(Cc2cccc(Oc3ccccc3)c2)C1 (stereo not shown) [Compound 101, 3-Methyl-1-(3-phenoxy-benzyl)-pyrrolidine-3-carboxylic acid (1-methyl-1H-imidazol-2-ylmethyl)-amide]
29 | > 20 | < 1 | O=C(NCc1cccc(Cl)c1)C1CCN(Cc2cccc(Oc3ccccc3)c2)C1 (stereo not shown) [Compound 69, 1-(3-Phenoxy-benzyl)-pyrrolidine-3-carboxylic acid 3-chloro-benzylamide]
30 | > 20 | < 1 | O=C(NCc1ccccn1)C1CCN(Cc2cccc(OCC(F)(F)F)c2)C1 (stereo not shown) [Compound 30, 1-[3-(2,2,2-Trifluoro-ethoxy)-benzyl]-pyrrolidine-3-carboxylic acid (pyridin-2-ylmethyl)-amide]
31 | > 20 | > 5 | CC(C)C[S+]([O-])c1cccc(CN2CCC(C(=O)NCc3ccccn3)C2)c1 (stereo not shown) [Compound 42, 1-[3-(2-Methyl-propane-1-sulfinyl)-benzyl]-pyrrolidine-3-carboxylic acid (pyridin-2-ylmethyl)-amide]
32 | 10 to 20 | 1 to 5 | O=C(NCc1cccc(F)c1)C1CCN(Cc2cccc(Oc3ccccc3)c2)C1 (stereo not shown) [Compound 74, 1-(3-Phenoxy-benzyl)-pyrrolidine-3-carboxylic acid 3-fluoro-benzylamide]
